Results taken from patent publication US7241581B2, “Methods of identifying compounds that modulate IL-4 receptor-mediated IgE synthesis utilizing a c-MYC protein” (Rigel Pharmaceuticals, Inc., priority 2002, dated 2007).

Tested on: germline ε promoter
Assay: Functional profile of BR10A1 wt and mutants in the A5T4 reporter cell line
Type: cell-based, human
Settings: A5T4 reporter line
Description: Following infection, the library was enriched for cells expressing peptides that inhibit IL-4 induced ε transcription as generally outlined in the top half of FIG. 3 and sorted by FACS into single cell clones. The clones were then screened as generally illustrated in the lower half of FIG. 3. Briefly, for screening, each clone was divided into two populations and one population was treated with Dox (10 ng/ml). After 5 days, both populations were stimulated with IL-4 (final conc. 60 U/mL; PeptroTech, Inc.) and, after 3 more days, both populations were analyzed by FACS to measure BFP and GFP fluorescence. FACS data were converted to a “reporter ratio”, which is defined for this purpose as the ratio of the geometric mean of GFP fluorescence of the +IL-4/+Dox to the +IL-4/−Dox populations. Cells expressing a peptide that inhibits germline ε transcription have a reporter ratio of ≧1.1. A reporter ratio of ≧1.2 is indicative of strong inhibition.
The ability of peptide BR10A1 wt to inhibit germline ε transcription was confirmed in naive cells. Briefly, Phoenix cells were transfected with a retroviral vector encoding a BFP-BR10A1 wt peptide fusion as described in WO 99/58663 and WO 97/27213. Naïve A5T4 cells were infected with the resultant virions and grown for 3 days. The infected cells were stimulated with IL-4 (60 U/mL) and, after 3 days, the cells were assessed by FACS for BFP and GFP. […] The BFP fluorescence data corresponding to the BFP^+ and BFP^− populations are provided in Panel A. The GFP fluorescence data corresponding to the BFP^+ and BFP^− populations are presented in Panel B. The reporter ratio for this purpose is determined as the geometric mean of the GFP fluorescence of the BFP^− population divided by the geometric mean of the GFP fluorescence of the BFP^+ population. The reporter ratio for the BR10A1 in this re-infection assay was 1.27.
A collection of BR10A1 mutants was generated by replacing single or double amino acid residues in the sequence of BR10A1 wt with a different amino acid, typically an alanine or glycine, as described in copending application Ser. No.10/095,659, entitled Methods of Identifying Protein Targets, filed Mar. 8, 2002 . The functional profiles for the mutants derived from BR10A1 wt was obtained by constructing and screening for activity in the A5T4 reporter cell line in the manner described above. The activity of each mutant at the germline ε promoter is reflected in the reporter ratio as described above. The reporter ratios were the functional values that were used to develop the functional profiles. Measurement of the reporter ratios of the mutant peptides was carried out in a number of separate experiments, each time comparing the value of cells transfected with mutant peptide to that of cells transfected with control WT peptide done at the same time. The reporter ratios of the control WT peptide can vary depending upon a number of factors including the infectivity or the state of the infected cells at the time of infection.
TABLE 2 depicts the amino acid sequences (the dual alanine mutations are underlined) of the mutants tested and the measured reporter ratios when screening in the A5T4 reporter line.
Comparison of the interaction and functional profiles was performed by categorizing the mutants of BR10A1 based on the functional and interaction assays. Based on the reporter ratio, each mutant was categorized into one of four functional categories: (1) reduction of function (ROF); (2) loss of function (LOF); (3) increase of function (IOF) or (4) functionally neutral (N) as compared to the activity of the wild type peptide, here BR10A1 wt. As mentioned previously, cells expressing a peptide that inhibits germline ε transcription have reporter ratios of ≧1.1. Cells expressing a loss of function (LOF) mutant have a reporter ratio of <1.11. […] Functionally neutral mutants have reporter ratios that fall within ±50% of that of the BR10A1 wt peptide. […]

MQRRESCITRSVEEGWGLFYLGP (peptide encoded by random oligo-BR10A1wt) [wild-type peptide from random library, expressed in cells as BFP-peptide fusion]
Reporter Ratio (first value column (separate experiment with its own WT control)): 1.27 | Reporter Ratio (fourth value column (separate experiment with its own WT control)): 1.35 | Reporter Ratio (second value column (separate experiment with its own WT control)): 1.36 | Reporter Ratio (separate experiment with its own WT control): 1.55
